Data on 4 molecules can be found in patent publication US20240034761A1, “REGENERATION OF MAMMALIAN TISSUES USING SYNTHETIC IMMODULINS” (priority 2022, published 2024).

Test [1] in a line: PIP-binding membrane assay (Membrane Lipid Strips). Details: key: —: −−− no binding; +++ strong binding. As to conditions: 400 ng peptide. Here is the method: N-terminally biotinylated versions of the peptides listed below were used in various assays listed in the examples. For the two types of phosphatidylinositon phosphate (PIP)-binding assays, imm1-imm6 peptides were used.
In the PIP-binding membrane assay, 400 ng of each peptide was bound to Membrane Lipid Strips (Catalog # P-6002, Echelon Biosciences, Salt Lake City, UT) and developed according to the manufacturer's instructions. Binding to PIPs was as follows (−−− no binding; +++ strong binding): […]

A short description of test [2]: Plate assay: biotinylated peptide on streptavidin plates, FITC-labelled PIP2. As to conditions: 400 ng peptide per well; for FITC-PIP2 fluorescence, Background Control: EDTA background; for FITC-PIP2 fluorescence, Ferric Iron: with ferric iron; for FITC-PIP2 fluorescence, Zinc: with zinc. It is filed as binding. Here is the method:
In the plate assay, biotinylated peptides imm3 and imm5 were bound to 96-well, streptavidin-coated plates (BioLegend corporaton, San Diego, CA) at 400 ng per well in PBS buffer at room temperature for 60 mins. Plates were washed in PBS and developed with FITC-labelled PIP2 (purchased from Cayman Chemical Co, Ann Arbor, MI). Fluorescence was counted in a laboratory fluorescence spectrophotometer. The results were as follows (EDTA background set to =100; **p<0.01 vs background control): […]

Test [3] deals with THP1-Dual monocyte reporter cell line. Nature of the test: THP1-Dual myeloid cell differentiation assay (PMA protocol). As to conditions: PMA 24 h, then peptide 0.33 uM or 0.66 uM 24 h; for CD169+ (AU): relative to immX3AVD = 100. In kind it is cell-based, human. As for the experimental part:
Mammalian cell differentiation assays employed the THP1-Dual monocyte reporter cell line (Invivogen Inc, San Diego, CA) seeded at 2×10e5 cells per well in 96-well plates and cultured at 37 degrees C. in RPMI-1640 growth medium plus 10% fetal bovine serum and 1% penicillin/streptomycin. Cells were subsequently treated for 24 hours with 100 ng/ml Phorbol 12-myristate 13-acetate (PMA protocol; Cayman Chemical Company, Ann Arbor, MI). Peptide (0.33 uM or 0.66 uM, as indicated) was then added, and incubation continued for an additional 24 hours. Culture supernatants were assayed for CCL22. Plates with adherent cells were washed with PBS and assayed for immunoreactivity of surface markers such as CD169, Clec9a or Clec12a using fuorescent tag- or biotin-labeled anti-human antibodies purchased from Miltenyi Biotec (Auburn, CA) and the secondary detection reagent recommended by the manufacturer.

The nature of test [4]: Plate binding of FITC-labelled heparin to immobilised biotinylated peptides. The conditions noted are these: 400 ng peptide/well, 1 ug FITC-heparin, PBS; normalized to immX3 peptide binding = 100. As for the experimental part: (§1) Effects of pH, PIP2 and size classes: Streptavidin-coated 96-well plates (G-Biosciences, St. Louis, MO) were pre-loaded with biotinylated peptides [see Example 1] at 400 ng/well, at room temperature for 60 minutes. The plate was washed with PBS buffer and then 1 ug FITC-labelled heparin or hyaluronic acid (FITC-HMW-HA) in 100 uL PBS buffer was added per well (all tests done in quadruplicate). Incubation proceeded for 90 minutes at room temperature, followed by two PBS washes. The plate was read in a standard laboratory fluorometer (488/525 nm exitation/[…]) and the counts normalized for immX3 peptide binding=100. Values statistically above background are shown in bold font. **p<0.05 versus immX3AVD.

Test [5] in a line: Plate binding of FITC-labelled hyaluronic acid to immobilised biotinylated peptides. The conditions noted are these: 400 ng peptide/well, 1 ug FITC-HMW-HA, PBS; normalized to immX3 peptide binding = 100. As for the experimental part: as §1
Test [6] relates to HFF-1 human fibroblast cell line. As to the kind of experiment: Collagen stimulating activity in HFF-1 dermal fibroblasts (Collagen-1 ELISA). In kind it is cell-based. As to conditions: peptide 2 uM, 72 hour; control (buffer) set to 100. Here is the method: Immodulin peptides have potential untility in the field of cosmetics. HFF-1 human fibroblast cell line was obtained from the American Type Culture Collection (ATCC). Cells were grown in a T-75 flask in DMEM Medium containing 10% fetal bovine serum and penicillin-streptomycin at 37° C. in a humidified, 5% CO2 incubator. Cells ([…], 2,000 cells/well) were plated in a 96-well plate and incubated overnight at 37° C. in a humidified, 5% CO2 incubator. Next day, […] of compounds were added (quadruplicate wells). After 72 hour incubation with the compound, supernatants were collected for Collagen-1 ELISA assay and cell viability was measured in a luminometer after the addition of […] CellTiterGlo reagent (Promega Inc, Madison, WI) as recommended by the manufacturer. Collagen stimulating activity of immodulin peptides in HFF-1 dermal fibroblasts: Peptides were added to cells at 2 uM. Collagen-1A1 (COL1) immunoreactivity was measured in the supernatants of cultured cells by ELISA using a rabbit monoclonal anti-COL1 primary antibody (Abcam, Cambridge, MA). Control (buffer) value of immunoreactivity was set to 100.
(In general: An ELISA detects its analyte on a solid surface through an enzyme-linked reagent.)

Test [7] deals with pure recombinant CD44 protein (Abcam). Nature of the test: plate assay, pH 5.2, peptide + 10 ug/well holotransferrin, no hyaluronan (CONTROL), 100 ng/well CD44, anti-CD44 mAb/TMB detection.
Chain of pure recombinant CD44 protein (Abcam) (P16070 whole entry): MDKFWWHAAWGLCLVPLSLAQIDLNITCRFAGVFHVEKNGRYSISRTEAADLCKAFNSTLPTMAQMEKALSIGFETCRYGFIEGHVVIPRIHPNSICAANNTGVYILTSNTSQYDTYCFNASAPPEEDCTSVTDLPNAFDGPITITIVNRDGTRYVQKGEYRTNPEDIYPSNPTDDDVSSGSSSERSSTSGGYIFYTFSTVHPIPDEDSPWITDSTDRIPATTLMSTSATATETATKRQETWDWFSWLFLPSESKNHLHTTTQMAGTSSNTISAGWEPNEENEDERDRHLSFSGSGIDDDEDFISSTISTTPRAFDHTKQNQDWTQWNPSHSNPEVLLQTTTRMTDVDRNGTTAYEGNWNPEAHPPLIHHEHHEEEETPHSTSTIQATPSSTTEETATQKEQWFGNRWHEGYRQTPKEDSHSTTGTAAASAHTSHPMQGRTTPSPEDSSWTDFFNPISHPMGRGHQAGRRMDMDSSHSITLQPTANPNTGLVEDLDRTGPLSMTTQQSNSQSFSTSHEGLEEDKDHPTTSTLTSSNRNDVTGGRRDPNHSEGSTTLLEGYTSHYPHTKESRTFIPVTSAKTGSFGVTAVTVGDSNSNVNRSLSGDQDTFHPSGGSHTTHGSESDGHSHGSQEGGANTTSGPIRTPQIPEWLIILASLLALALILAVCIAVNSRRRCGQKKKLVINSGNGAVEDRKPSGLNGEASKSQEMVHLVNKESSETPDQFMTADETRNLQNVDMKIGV
The target is the same in test [8]. Nature of the test: plate assay, pH 7.4, peptide + 10 ug/well holotransferrin, no hyaluronan (CONTROL), 100 ng/well CD44, anti-CD44 mAb/TMB detection.
Test [9] has the same target. As to the kind of experiment: plate assay, pH 5.2, peptide + 10 ug/well holotransferrin + 10 ug/well HMW-hyaluronan (CD44 capture through HA), anti-CD44 mAb/TMB detection.
Test [10] shares this target. Nature of the test: plate assay, pH 5.2, peptide + 10 ug/well holotransferrin + 10 ug/well LMW-hyaluronan (CD44 capture through HA), anti-CD44 mAb/TMB detection.
For test [11] the target is unchanged. Nature of the test: plate assay, pH 7.4, peptide + 10 ug/well holotransferrin + 10 ug/well HMW-hyaluronan (CD44 capture through HA), anti-CD44 mAb/TMB detection.
The target is the same in test [12]. Nature of the test: plate assay, pH 7.4, peptide + 10 ug/well holotransferrin + 10 ug/well LMW-hyaluronan (CD44 capture through HA), anti-CD44 mAb/TMB detection.
Test [13] has the same target. As to the kind of experiment: plate assay, pH 5.2, peptide + 10 ug/well holotransferrin + 1.5 ug/well HMW-hyaluronan (CD44 capture through HA), anti-CD44 mAb/TMB detection.
For test [14] the target is unchanged. Nature of the test: plate assay, pH 7.4, peptide + 10 ug/well holotransferrin + 1.5 ug/well HMW-hyaluronan (CD44 capture through HA), anti-CD44 mAb/TMB detection.

Marks after values point to notes of the source that are not given here. Ends that are not written are not given here. Peptide text beside a SMILES is read from it. * marks the point of attachment. Biotin = O=C1N[C@H]2[C@H](CS[C@H]2CCCCC(=O)*)N1

In the case of `N=C(N)NCCC[C@H](NC(=O)CNC(=O)[C@H](CCCCN)NC(=O)[C@H](CO)NC(=O)[C@@H]1CCCN1C(=O)[C@H](CCCNC(=N)N)NC(=O)[C@H](CS)NC(=O)[C@H](CCC(N)=O)NC(=O)[C@H](CCCCN)NC(=O)[C@H](CCCCN)NC(=O)[C@H](CCCCN)NC(=O)[C@H](Cc1ccc(O)cc1)NC(=O)[C@H](Cc1ccccc1)NC(=O)CNC(=O)[C@H](CCCCN)NC(=O)[C@@H](N)CCCCN)C(=O)N[C@@H](CCCCN)C(=O)N[C@@H](CCCNC(=N)N)C(=O)NCC(=O)N[C@@H](Cc1ccccc1)C(=O)N[C@@H](CS)C(=O)N[C@@H](Cc1c[nH]c2ccccc12)C(=O)O` [imm3] (H-KKGFYKKKQCRPSKGRKRGFCW-OH), in test [1], the “Binding to Phosphatidylinositol” value is given as “—”, the “Binding to PtdIns(4)P [PIP1]” value was “—” and the “Binding to PtdIns(4,5)P [PIP2]” value is “+++”. In test [2], the “FITC-PIP2 fluorescence, Background Control” value is on record as 1.0 ± 0.8; the “FITC-PIP2 fluorescence, Ferric Iron” value is on record as 26.2 ± 5.7**; the “FITC-PIP2 fluorescence, Zinc” value was 4.7 ± 1.3**. The “CD169+ (AU)” value in test [3] is given as 27.8 ± 3.0 AU. In addition, the CCL22 in test [3] (culture supernatant) came to 55.3 ± 16.1 pg/mL. The “Heparin binding (fluorescence counts)” value in test [4] is reported as 104.2 ± 22.0. Also, the “Hyaluronate binding (fluorescence counts)” value (shortened to “Hyaluronate binding”) in test [5] is listed as 57.2 ± 5.7**. Moreover, in test [6], the “COL1 (Collagen-1A1 immunoreactivity in supernatant)” value (“COL1” for short) is recorded as 101.
`CC(C)C[C@H](NC(=O)[C@H](C)NC(=O)[C@@H]1CCCN1C(=O)[C@H](Cc1c[nH]cn1)NC(=O)[C@H](CS)NC(=O)[C@H](CCC(N)=O)NC(=O)[C@H](CCCCN)NC(=O)[C@@H]1CCCN1C(=O)[C@H](Cc1c[nH]cn1)NC(=O)[C@H](Cc1ccccc1)NC(=O)[C@H](CC(N)=O)NC(=O)CNC(=O)[C@H](CC(N)=O)NC(=O)[C@@H](N)CCCNC(=N)N)C(=O)N[C@@H](CC(=O)O)C(=O)NCC(=O)N[C@@H](CCC(N)=O)C(=O)N[C@@H](CCCNC(=N)N)C(=O)NCC(=O)N[C@@H](CCCCN)C(=O)N[C@@H](CS)C(=O)N[C@@H](Cc1c[nH]c2ccccc12)C(=O)O` [imm4] (H-RNGNFHPKQCHPALDGQRGKCW-OH): in test [1], the “Binding to Phosphatidylinositol” value was “—”, the “Binding to PtdIns(3,4,5)P [PIP3]” value is reported as “—”, the “Binding to PtdIns(4)P [PIP1]” value is on record as “—” and the “Binding to PtdIns(4,5)P [PIP2]” value is “—”. Besides, the “CD169+ (AU)” value in test [3] is listed as 3.8 ± 1.1 AU. Also, the “Heparin binding (fluorescence counts)” value in [4] is recorded as 6.8 ± 24.1. In test [5], the “Hyaluronate binding” value amounted to 14.6 ± 22.6. Further, in test [6], the “COL1” value is listed as 105.
On to `CC[C@H](C)[C@H](NC(=O)CNC(=O)[C@H](CCCNC(=N)N)NC(=O)[C@H](CCCCN)NC(=O)[C@H](CCCNC(=N)N)NC(=O)CNC(=O)[C@H](CCCNC(=N)N)NC(=O)[C@H](CO)NC(=O)[C@@H]1CCCN1C(=O)[C@H](CCCCN)NC(=O)[C@H](CS)NC(=O)[C@H](CCC(N)=O)NC(=O)[C@H](CCCCN)NC(=O)[C@H](CCCNC(=N)N)NC(=O)[C@H](CCCCN)NC(=O)[C@H](Cc1ccc(O)cc1)NC(=O)[C@H](Cc1ccccc1)NC(=O)CNC(=O)[C@H](CCCCN)NC(=O)[C@@H](N)CCCNC(=N)N)C(=O)N[C@@H](CS)C(=O)N[C@@H](Cc1c[nH]c2ccccc12)C(=O)O` [imm5] (H-RKGFYKRKQCKPSRGRKRGICW-OH), for which, in test [1], the “Binding to Phosphatidylinositol” value is “—” and the “Binding to PtdIns(4,5)P [PIP2]” value was “+++”. For the same molecule, in test [2], the “FITC-PIP2 fluorescence, Background Control” value amounted to 1.8 ± 0.5; the “FITC-PIP2 fluorescence, Ferric Iron” value is on record as 23.4 ± 3.5**; the “FITC-PIP2 fluorescence, Zinc” value is listed as 5.0 ± 1.2**. Besides, the “CD169+ (AU)” value in test [3] worked out at 36.5 ± 3.0 AU. Besides, the “Heparin binding (fluorescence counts)” value in test [4] is 95.1 ± 25.7. The “Hyaluronate binding” value in [5] is recorded as 60.0 ± 8.6**. In addition, the “COL1” value in [6] is given as 93.

B1: immX3AVD + holoTf (immX3AVD peptide incubated with 10 ug/well holotransferrin) (peptide, part only; not given: holotransferrin, not shown: large carriers)
peptide: Biotin-KKGFYKKKQCRPSKGRKRGFCWAVD
modifications: cysteine pairing not given here; also: non-covalent mixture/complex with holotransferrin, stoichiometry not given here
Consider B1, for which the CD44 immunoreactivity (AU) (AU (immX3AVD + 1.5 ug HMW-HA = 100)) is 12 in [7]; 3.1 in [8]; 94.8 in [9]; 27.4 in test [10]; 107 in test [11]; 38.7 in test [12]. Moreover, the CD44 immunoreactivity (AU) (AU (immX3AVD + 1.5 ug HMW-HA = 100)) in [13] was found to be 103; in test [14] it was 98.3.
